Laboratory results taken from PubChem BioAssay (NCI).
“And” between values parts separate entries of the source, which are not always exact repeats. Equal entries are not always repeated.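 Step 1: Grow cells in 96-well plates. Step 2: Expose to compound for 48 hours at 5 concentrations. Step 3: Interpolate endpoints linearly; if unreached, use highest concentration. Abbreviation: GI50, concentration required for 50% inhibition of growth. At the TGI there is no net growth.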

What was measured:
Assay in all cases: NCI tumour cell line growth inhibition, 48 h
[1] = test system: SNB-78 CNS
[2] = test system: DMS 114 small cell lung
[3] = test system: M19-MEL melanoma
[4] = test system: RXF-631 renal
[5] = test system: DMS 273 small cell lung
[6] = test system: HOP-18 NSCLC
[7] = test system: MDA-N
[8] = test system: KM20L2 colon
[9] = test system: XF 498 CNS
[10] = test system: P388 leukemia
[11] = test system: P388/ADR leukemia

Row | SMILES | TGI [1] | TGI [2] [µM] | TGI [3] | TGI [4] [µM] | TGI [5] [µM] | TGI [6] [µM] | TGI [7] | TGI [8] | TGI [9] | other results
1 | Cc1cccc(CC(C)(C)C)c1NC(=O)C(=O)C(C(=O)c1ccc2ccccc2c1)C1OC(=O)c2ccccc21 (stereo not given) | > 100 µM | 56.7 | 64.1 µM |  |  |  |  |  |  | 
2 | Cc1cccc(N2C(=O)/C(=C/c3ccc(N(CCC#N)CCC#N)cc3C)N=C2c2cc([N+](=O)[O-])ccc2Cl)c1 |  | > 100 | > 100 µM | > 100 | > 100 | > 100 |  |  |  | 
3 | CN1CC(C(=O)NC2(C)OC3(O)C4CCCN4C(=O)C(Cc4ccccc4)N3C2=O)C=C2c3cccc4[nH]cc(c34)CC21 (stereo not given) |  |  |  |  |  |  | 55.1 µM |  |  | 
4 | CCOC(=N)CC(=O)NC(C)c1ccccc1 (stereo not given) | > 100 µM |  | > 100 µM | > 100 | > 100 | > 100 |  | > 100 µM | > 100 µM | 
5 | O=C1c2cccc3cccc(c23)C(=O)N1CCCN1CCN(CCCN2C(=O)c3cccc4cccc(c34)C2=O)CC1 | > 100 µM | > 100 | > 100 µM | > 100 | > 100 | > 100 |  | > 100 µM | > 100 µM | 
6 | C=C(C)[C@]12CC(C)C34OC(/C=C\C=C\CCCCCCCCC)(O[C@@H]1[C@@H]3[C@@H]1O[C@]1(CO)[C@@H](O)[C@]1(O)C(=O)C(C)=C[C@@H]41)O2 (stereo not given in full) |  |  |  |  |  |  | 19 µM |  |  | GI50 [7]: 0.000167 µM
7 | CCN1CC2(C)CC[C@@H](OC)C34[C@@H]2[C@H](OC(C)=O)C2(OCO[C@@]25C[C@H](OC)C2C[C@]3(O)[C@@H]5[C@H]2O)[C@H]14 | > 100 µM | > 100 | > 100 µM |  |  |  |  | > 100 µM |  | 
8 | COc1cc(C2c3cc4c(cc3[C@@H](Nc3cccc(O)c3)C3COC(=O)[C@H]23)OCO4)cc(OC)c1O (stereo not given in full) | 65.1 µM | 5.21 | 18.9 µM |  | 6 | 33 | 20.5 µM | 17.6 µM | 0.985 µM and 8.34 µM | GI50 [1]: 0.906 µM; TGI [10]: 0.507 µM; GI50 [5]: 0.404 µM; GI50 [2]: 0.49 µM; GI50 [9]: 0.52 µM; TGI [11]: 1.65 µM; GI50 [3]: 0.747 µM
9 | C/C(=N\NC(=S)N1CCC(C2CCN(C(=S)N/N=C(\C)c3ccccn3)CC2)CC1)c1ccccn1 | > 100 µM |  | > 100 µM | > 100 | > 100 | > 100 |  | > 100 µM | 86.5 µM | 
10 | O=C1CC2Sc3ccccc3N=C2N1c1ccc(Cl)cc1Cl (stereo not given) | > 100 µM | > 100 | > 100 µM | > 100 |  | > 100 |  | > 100 µM | > 100 µM | 
11 | O=C1/C(=C/c2ccccc2)CN(C(=O)OCC(Cl)(Cl)Cl)C/C1=C\c1ccccc1 | 5.92 µM | 4.08 | 2.79 µM |  | 3.27 | 9.82 |  | 7.68 µM |  | 
12 | CC[C@@]1(OC(=O)CN(C)C)C(=O)OCc2c1cc1n(c2=O)Cc2cc3ccccc3nc2-1 | > 100 µM | 1.53 | 2.13 µM and 1.09 µM |  | 0.149 |  | 1.92 µM and 3.8 µM | 4.94 µM | 3.19 µM | GI50 [1]: 0.957 µM; GI50 [6]: 0.113 µM; GI50 [3]: 0.101 µM
13 | Cc1ns/c(=N\C(=S)N(C)C)n1C | > 100 µM | > 100 |  | > 100 | > 100 | > 100 |  | > 100 µM | > 100 µM | 
14 | Cc1nc(C(N)=S)sc1C(=O)CC(=O)C(=O)Nc1cccc(Cl)c1C |  |  |  |  |  |  | > 100 µM |  |  | 
15 | CCCCCCCCCCCCCCCC(=O)OCC1OC(n2ccc(N)nc2=O)C(O)C1O (stereo not given) | > 100 µM |  | > 100 µM |  | > 100 | > 100 | > 100 µM | > 100 µM | > 100 µM | 
16 | O=C1c2ccccc2C(=O)c2c1ccc1c3ccccc3n(Cc3ccccc3)c21 |  | > 100 | > 100 µM |  |  | 0.0908 |  |  | > 100 µM | 
17 | O=C(CC(C(=O)O)N1CCOCC1)c1ccccc1 (stereo not given) |  |  |  |  |  |  | 36.8 µM |  |  | 

Row | SMILES | TGI [1] | TGI [2] [µM] | TGI [3] | TGI [4] [µM] | TGI [5] [µM] | TGI [6] [µM] | TGI [7] | TGI [8] | TGI [9] | other results
18 | O=C(OCc1nc2ccc(Br)cc2c(=O)n1-c1ccccc1)c1ccccc1O | > 100 µM |  | > 100 µM |  |  |  |  | > 100 µM | > 100 µM | 
19 | Cc1[nH]c(=O)nc(N/N=C/c2ccc(O)cc2)c1C(=O)Nc1ccc(Cl)cc1 | > 100 µM | > 100 | > 100 µM | > 100 | > 100 | > 100 |  | > 100 µM |  | 
20 | N#CC1(C#N)C2C=CC(C3CCC=C32)C1(C#N)C#N (stereo not given) |  |  |  |  |  |  | > 10 µM |  |  | 
21 | COc1ccccc1NC(=O)C(=O)C1C(=O)Nc2ccccc2S1=O (stereo not given) | > 100 µM | > 100 | > 100 µM | > 100 | > 100 | > 100 |  | > 100 µM | > 100 µM | 
22 | COC(=O)C1CCC(=NC2c3ccccc3-c3ccccc32)N1 (stereo not given) | > 100 µM | > 100 | > 100 µM | > 100 | > 100 | > 100 |  | > 100 µM | > 100 µM | 
23 | COc1cc2c(cc1OC)[C@H]1C(=O)c3cc4c(cc3[C@H]1N(C)C2=O)OCO4 |  |  |  |  |  |  | > 100 µM |  |  | 
24 | COc1cc2c(c(OC)c1OC)-c1ccc(SC)c(=O)cc1[C@@H](NC(=O)c1ccc(C#N)cc1)CC2 | 83.7 µM | < 0.01 | > 100 µM |  | > 46.3 |  |  | < 0.01 µM |  | 
25 | O=[N+]([O-])O.[NH-]C1CCCCC1[NH-].[NH-]C1CCCCC1[NH-].[NH-]C1CCCCC1[NH-].[OH-].[OH-].[OH-].[Pt+4].[Pt+4].[Pt+4] (stereo not given) |  |  |  |  |  |  | 6.74 µM |  |  | GI50 [7]: 0.205 µM
26 | CC(C)(C)NCCC(O)c1cc(C(F)(F)F)nc2c(C(F)(F)F)cccc12 (stereo not given) |  |  |  |  |  |  | 24 µM |  |  | 
27 | CC[C@@]1(O)C(=O)OCc2c1cc1n(c2=O)Cc2cc3c(NC(C)=O)c(O)ccc3nc2-1 | > 100 µM | 7.58 | 43.7 µM | > 100 | 8.33 | > 100 |  | > 100 µM | 51 µM | GI50 [1]: 28.9 µM; GI50 [4]: 4.47 µM; GI50 [5]: 0.296 µM; GI50 [8]: 16.3 µM; GI50 [6]: 7.57 µM; GI50 [2]: 0.353 µM; GI50 [9]: 5.39 µM; GI50 [3]: 4.93 µM
28 | CCC1NCC(=O)c2c1[nH]c1ccccc21 (stereo not given) | > 100 µM | > 100 | > 100 µM |  | > 100 | > 100 |  | > 100 µM |  | 
29 | CCCCCCCCCCCCCCCC(=O)N[C@H]1CCc2cc(OC)c(OC)c(OC)c2-c2ccc(SC)c(=O)cc21 | 80 µM and 25.7 µM |  | 13.6 µM and 13.7 µM |  |  | 36.9 |  | 0.344 µM and 3.4 µM | 8.5 µM and 8.63 µM | GI50 [1]: 0.669 µM; GI50 [8]: 1.59 µM; GI50 [9]: 2.18 µM; GI50 [3]: 3.15 µM
30 | CCCCCCCCC(=O)NCCCNCCCNC(=O)CCCCCCCC | 26 µM | 8.79 | 8.38 µM |  | 6.03 | 26.6 |  | 6.31 µM | 9.22 µM | 
31 | CN1c2ccccc2C(=O)Nc2cnc(Cl)nc21 |  |  |  |  |  |  | > 100 µM |  |  | 
32 | Clc1ccccc1C1=NN(c2ccccc2)C2c3cc(Br)ccc3OCC12 (stereo not given) | > 100 µM | > 100 | > 100 µM |  | > 100 | > 100 |  | > 100 µM | > 100 µM | 
33 | N#CC(=C=[N-])[n+]1ccc(Cl)cc1 | 42.4 µM | 26.9 | 27.8 µM | 52.5 | 46.2 |  |  | 65.4 µM | 33.4 µM | 
